PubChem BioAssay AID588808 (Broad Institute, 2011)
Activity calls are given as the source filed them.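 Rule for the calls: active = Aurora B inhibition with potency within ten times the top dose, in every repeat test; inconclusive = repeat tests disagree in their calls; inactive = every repeat test inactive.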

These compounds were tested against Aurora kinase B (Homo sapiens) (UniProt Q96GD4) (assay: Aurora B kinase inhibition counter-screen, dose response, counter-screen for STK33 inhibitor project, biochemical, scintillation, dry powder, set 3 (AID 588808)). Details: Recombinant Aurora B, 33P-ATP filter-binding scintillation.
Aurora kinase B (Homo sapiens), sequence (Q96GD4 whole entry, looked up): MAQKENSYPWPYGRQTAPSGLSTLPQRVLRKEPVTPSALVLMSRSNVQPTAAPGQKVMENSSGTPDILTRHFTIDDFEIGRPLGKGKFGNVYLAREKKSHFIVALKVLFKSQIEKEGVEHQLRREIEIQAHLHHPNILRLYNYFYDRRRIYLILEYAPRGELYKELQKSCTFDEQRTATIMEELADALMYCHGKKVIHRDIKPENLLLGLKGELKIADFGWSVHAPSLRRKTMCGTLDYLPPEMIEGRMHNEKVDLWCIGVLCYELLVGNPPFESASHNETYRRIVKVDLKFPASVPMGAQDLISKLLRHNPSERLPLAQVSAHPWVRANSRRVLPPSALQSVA

| SMILES | AC50 [µM] |
| --- | --- |
| CC(C)c1ccc(NC(=O)c2cccs2)c(-c2nc3ccccc3[nH]c2=O)c1 | 7.79 |

Same assay, conditions: Recombinant Aurora B, 33P-ATP filter-binding scintillation; at 10 µM (top of the series)

| SMILES | activity change, negative = inhibition |
| --- | --- |
| O=C(Nc1ccc(F)cc1-c1nc2ccccc2[nH]c1=O)c1cccs1 | inactive |
| O=C(Nc1ccccc1-c1nc2ccccc2[nH]c1=O)c1ccccn1 | inactive |
| COc1ccc(C(=O)Nc2ccccc2-c2nc3ccccc3[nH]c2=O)cc1 | inactive |
| O=C(Nc1ccccc1-c1nc2ccccc2[nH]c1=O)c1cccnc1 | inactive |
| COc1ccc(NC(=O)c2cccs2)c(-c2nc3ccccc3[nH]c2=O)c1 | inactive |
| O=C(Nc1ccccc1-c1nc2ccccc2[nH]c1=O)c1cccc(Cl)c1 | inactive |
| O=C(Nc1ccc(Cl)cc1-c1nc2ccccc2[nH]c1=O)c1cccs1 | inactive |
| O=C(Nc1ccccc1-c1nc2ccccc2[nH]c1=O)c1ccc(F)cc1 | inactive |
| O=C(Nc1cc(F)ccc1-c1nc2ccccc2[nH]c1=O)c1cccs1 | inactive |
| O=C(Nc1ccc(OC(F)(F)F)cc1-c1nc2ccccc2[nH]c1=O)c1cccs1 | inactive |
| O=C(Nc1cc(Cl)ccc1-c1nc2ccccc2[nH]c1=O)c1cccs1 | inactive |
| O=C(Nc1ccccc1-c1nc2ccccc2[nH]c1=O)c1cccs1 | inactive |
